Values joined by “and” are separate entries in the source; they are usually repeats but may differ in a detail not shown here. Identical values can stand only once.
Columns and labels:
HeLa cells = experiment: Cell permeability: fluorescence imaging and live cell confocal imaging; format: cell-based; conditions: for intracellular organelles in which fluorescence is detected: HeLa cells; for co-localization with LysoTracker: live-cell confocal imaging, IQ 56 green, IQ 57 blue wavelength; for detection with yellow and red wavelength filters: live HeLa cells, ex 514 nm, em 519 nm and ex 561 nm, em 566 nm
Experimental: HeLa cells were seeded in a 96-well plate and incubated for 24 hours. The cells were treated with the indolizino[3,2-c]quinoline compounds, and incubated at 37° C. under a 5% CO2 condition for 30 minutes. After removal of the medium, the cells were washed with 1×DPBS. The washed cells were fixed with 4% formaldehyde at room temperature for 10 minutes, and washed with 1×DPBS. A cell image was screened using an Operetta HTS imaging system (PerkinElmer).
After HeLa cells were seeded to account for 70 to 80% of the area of a confocal dish (SPL life science) and overnight cultured, the indolizino[3,2-c]quinoline compounds (10 μM) prepared by mixing fresh DMEM after removal of the existing DMEM medium were dispensed, and the cells were incubated for 30 minutes to 1 hour at 37° C. Afterward, if needed, LysoTracker (50 nM) was mixed with DMEM to remove the existing medium and then dispensed to the cells, and the cells were incubated for 30 minutes at 37° C. After incubation, without washing, the cells were examined by a confocal laser microscope (Leica TCS SP8 SMD, Leica, Mannheim, Germany). However, when co-stained with a LysoTracker, the cells were washed with DPBS twice before the microscopy. […]

[1] = Analysis of optical characteristics (absorption, fluorescence emission, quantum yield) in solvents; format: physicochemical; conditions: for Fluorescence Emission Intensity / Peak emission wavelength λmax em(nm) / Relative fluorescence Emission Intensitynorm: H2O at 2 μM; for Peak emission wavelength λmax em(nm): excited at the longest absorption maxima; for Relative fluorescence Emission Intensitynorm: normalized fluorescence intensity; for Fluorescence quantum yield (Φ): Rhodamine 6G as a standard (Φ = 0.86 in water)
Experimental: Fluorescence emission spectra were obtained at 20° C. using a JASCO FP-6500 spectrofluorometer, a 10 mM stock solution prepared by dissolving an indolizino[3,2-c]quinoline compound in DMSO was diluted in a solvent. […] Absorption spectra were recorded at room temperature using a Perkin Elmer Lamda 20 UV/VIS spectrometer. […]
Further, the compounds (excluding Entry #51-57, etc.) of Formula 1 were subjected to spectrum analyses in various solvents, and the results are shown in Tables 6 and 7, and FIGS. 5C and 5D.

Structure (SMILES) | quantum yield (Φ) ([1]; DW, standard Rhodamine 6G) | quantum yield (Φ) ([1]; EtOH, standard Coumarin 153) | Fluorescence Emission Intensity [1] | Peak emission wavelength λmax em(nm) [1] | Relative fluorescence Emission Intensitynorm [1] | further results
COc1ccc(-c2nc3ccccc3c3cc4ccccn4c23)cc1CN1CCOCC1 [IQ 56, 4-(5-(indolizino[3,2-c]quinolin-6-yl)-2-methoxybenzyl)morpholine] | – | – | – | – | – | intracellular organelles in which fluorescence is detected (HeLa cells): intensively distributed in the lysosomal area; co-localization with LysoTracker (HeLa cells): co-localized with the commercially available marker LysoTracker
CCOC(=O)c1c2c3ccccc3nc(-c3ccc(OC)c(CN4CCOCC4)c3)c2n2ccccc12 [IQ 57, ethyl 6-(4-methoxy-3-(morpholinomethyl)phenyl)indolizino[3,2-c]quinoline-12-carboxylate] | – | – | – | – | – | intracellular organelles in which fluorescence is detected (HeLa cells): intensively distributed in the lysosomal area; co-localization with LysoTracker (HeLa cells): co-localized with the commercially available marker LysoTracker
COc1ccc(-c2ccn3c(c2)cc2c4ccccc4nc(-c4ccc(OC)cc4)c23)cc1 [IQ-B26, 6,10-bis(4-methoxyphenyl)indolizino[3,2-c]quinoline] | – | – | – | – | – | detection with yellow and red wavelength filters (HeLa cells): detected
COc1ccc(-c2nc3ccccc3c3cc4cc(-c5ccc(/C=C/C=O)cc5)ccn4c23)cc1 [IQ-B31, (E)-3-(4-(6-(4-methoxyphenyl)indolizino[3,2-c]quinolin-10-yl)phenyl)acrylaldehyde] | – | – | – | – | – | λex(nm) ([1]; Table 7): 440 nm; detection with yellow and red wavelength filters (HeLa cells): detected
Cc1ccc(-c2nc3ccccc3c3cc4c(C)cccn4c23)cc1 [compound 15] | 0.024 | 0.654 | 9.4 | 535.5 nm | 0.04 | –
COc1cc(OC)cc(-c2nc3ccccc3c3cc4c(C)cccn4c23)c1 [compound 16] | 0.014 | 0.672 | 11.7 | 535 nm | 0.05 | –
COC(=O)c1c2c3ccccc3nc(-c3cccc4ccccc34)c2n2ccccc12 [compound 20] | 0.367 | 0.468 | 143.5 | 493 nm | 0.62 | –
COc1ccc(-c2nc3ccccc3c3cc4ccc(Br)cn4c23)cc1 [compound 22] | 0.070 | 0.440 | 89.5 | 512 nm | 0.38 | –
Cc1ccc(-c2nc3ccccc3c3cc4ccc(Br)cn4c23)cc1 [compound 23] | 0.065 | 0.106 | 82.4 | 518 nm | 0.35 | –
COc1ccc(-c2nc3ccccc3c3cc4ccc(Br)cn4c23)cc1OC [compound 24] | 0.030 | 0.063 | 75.1 | 513 nm | 0.32 | –
Brc1ccc2cc3c4ccccc4nc(-c4ccco4)c3n2c1 [compound 25] | 0.009 | 0.031 | 13.4 | 505.5 nm | 0.06 | –
CCOC(=O)c1c2c3ccccc3nc(-c3ccc([N+](=O)[O-])cc3)c2n2ccccc12 [compound 26] | 0.000 | 0.000 | – | – | 0.00 | Maximum absorption wavelength λmax abs(nm) [1]: 384 nm
CCOC(=O)c1c2c3ccccc3nc(-c3cccc(Cl)c3)c2n2ccccc12 [compound 27] | 0.073 | 0.318 | 98.9 | 474 nm | 0.42 | –
CCOC(=O)c1c2c3ccccc3nc(-c3cccc(F)c3)c2n2ccccc12 [compound 28] | – | – | 211.7 | 476 nm | 0.91 | Absorption coefficient (cm^−1M^−1) [1]: 10780 cm^−1M^−1; Absorption wavelength λex(nm) [1]: 369 nm; Emission wavelength λem(nm) [1]: 476 nm; λem (nm) ([1]; DMF): 470 nm; λem (nm) ([1]; DMSO): 472.5 nm; λem (nm) ([1]; EtOH): 449.5 nm; λem (nm) ([1]; EtOH:CHCl3 = 1:5): 450 nm; λem (nm) ([1]; H2O): 476 nm; λem (nm) ([1]; MC): 451.5 nm; Fluorescence quantum yield (Φ) [1]: 0.061
CCOC(=O)c1c2c3ccccc3nc(-c3cccc(OC)c3)c2n2ccccc12 [compound 29] | 0.120 | 0.365 | 186.2 | 482 nm | 0.80 | –
CCOC(=O)c1c2c3ccccc3nc(-c3ccc(OC)c(OC)c3)c2n2ccccc12 [compound 30] | – | – | 210.7 | 480.5 nm | 0.90 | Absorption coefficient (cm^−1M^−1) [1]: 10580 cm^−1M^−1; Absorption wavelength λex(nm) [1]: 369 nm; Emission wavelength λem(nm) [1]: 481 nm; λem (nm) ([1]; DMF): 450 nm; λem (nm) ([1]; DMSO): 452.5 nm; λem (nm) ([1]; EtOH): 444 nm; λem (nm) ([1]; EtOH:CHCl3 = 1:5): 447.5 nm; λem (nm) ([1]; H2O): 478.5 nm; λem (nm) ([1]; MC): 448 nm; Fluorescence quantum yield (Φ) [1]: 0.084
Cc1cccn2c1cc1c3ccccc3nc(-c3cccc4ccccc34)c12 [compound 33] | 0.082 | 0.277 | – | – | – | –
Cc1ccc2cc3c4ccccc4nc(-c4cccc5ccccc45)c3n2c1 [compound 35] | 0.073 | 0.365 | – | – | – | –
COc1ccc(-c2nc3ccccc3c3c(C#N)c4ccccn4c23)cc1 [compound 39] | 0.026 | 0.492 | – | – | – | –
COC(=O)c1c2c3ccccc3nc(-c3ccccn3)c2n2ccccc12 [compound 43] | 0.014 | 0.275 | – | – | – | –
COc1ccc(-c2nc3ccccc3c3c(-c4ccc(C(F)(F)F)cc4)c4ccccn4c23)cc1 [compound 47] | 0.050 | 0.597 | – | – | – | –
COc1ccc(-c2nc3ccccc3c3c(-c4ccc(C(C)=O)cc4)c4ccccn4c23)cc1 [compound 48] | 0.105 | 0.050 | – | – | – | –
COc1ccc(-c2nc3ccccc3c3c(Br)c4ccccn4c23)cc1 [compound 49] | 0.085 | 0.195 | – | – | – | –
COc1ccc(-c2nc3ccccc3c3c(I)c4ccccn4c23)cc1 [compound 50] | 0.014 | 0.037 | – | – | – | –
CCOC(=O)c1c2c3ccccc3nc(-c3ccc(OC)cc3)c2n2ccccc12 [compound 51] | – | – | – | – | – | λex(nm) ([1]; Table 6): 403 nm
Cc1cccn2c1cc1c3ccccc3nc(-c3cccs3)c12 [compound 52] | – | – | – | – | – | λex(nm) ([1]; Table 6): 399 nm
Cc1cccn2c1cc1c3ccccc3nc(-c3ccc(Cl)o3)c12 [compound 53] | – | – | – | – | – | λex(nm) ([1]; Table 6): 422 nm
C#Cc1c2c3ccccc3nc(-c3ccc(OC)cc3)c2n2ccccc12 [compound 55] | – | – | – | – | – | λex(nm) ([1]; Table 6): 413 nm
COc1ccc(-c2nc3ccccc3c3cc4ccccn4c23)cc1CN1CCOCC1 [compound 56] | – | – | – | – | – | λex(nm) ([1]; Table 6): 450 nm and 422 nm
CCOC(=O)c1c2c3ccccc3nc(-c3ccc(OC)c(CN4CCOCC4)c3)c2n2ccccc12 [compound 57] | – | – | – | – | – | λex(nm) ([1]; Table 6): 401 nm
